tested on: Aβ formation (γ-secretase) in H4 cells stably transfected to overexpress the HPLAP-APP fusion protein; assay: In vitro assay based on the inhibition of Aβ formation in cultured cells; assay type: cell-based, human; details: H4 cells overexpressing HPLAP-APP, 18 hrs incubation at 37° C., Aβ in supernatant by time-resolved fluorescence; class symbols
Experimental: Cultured human cell lines, such as HEK293 and H4 cells, which express APP and γ-secretase activity or transfected derivative cell lines that overexpress wild-type APP, mutant APP, or APP fusion proteins will secrete Aβ peptides into the culture media that can be quantified as previously outlined (Dovey, H. et al., J. Neurochem., 76:173-181 (2001)). The incubation of these cultured cells with γ-secretase inhibitors decreases the production of Aβ peptides. For instance, H4 cells stably transfected to overexpress the HPLAP-APP fusion protein described above were grown as above, detached, and adjusted to 2×10^5 cells/ml. 100 μl of the resulting suspension was then added to each well of a 96-well plate. After 4 hrs, the media was removed and replaced with 100 μl serum-free media containing various dilutions of the test compound. Plates were then incubated for 18 hrs at 37° C. and a 100 μl aliquot of the tissue culture supernatant was removed for determination of Aβ levels using time-resolved fluorescence of the homogenous sample as outlined above. Alternately, the other methods described above for Aβ determination could be used. The extent of Aβ inhibition was used to calculate the IC50 value for the test compound.
In the table, an inhibitory concentration (IC50) of less than or equal to 50 nM is represented by +++; between 50 nM and 500 nM by ++; between 500 nM and 5000 nM by +.

SMILES | IC50 [nM]
O=S(=O)(c1ccc(Cl)cc1)N(Cc1ccc(-c2ncco2)c(F)c1F)[C@@H]1CCCC[C@H]1CO [Compound 16, 4-Chloro-N-(2,3-difluoro-4-(oxazol-2-yl)benzyl)-N-((1R,2R)-2-(hydroxymethyl)cyclohexyl)benzenesulfonamide] | ≤ 50
O=S(=O)(c1ccc(Cl)cc1)N(Cc1ccc(-c2ncon2)cc1)[C@@H]1CCCC[C@H]1CO (single isomer, unassigned) [Compound 7, N-(4-(1,2,4-oxadiazol-3-yl)benzyl)-4-chloro-N-(trans-2-(hydroxymethyl)cyclohexyl)benzenesulfonamide] | ≤ 50
O=S(=O)(c1ccc(Cl)cc1)N(Cc1ccc(-c2ncon2)cc1)[C@@H]1CCCC[C@H]1CO [Compound 17, N-(4-(1,2,4-Oxadiazol-3-yl)benzyl)-4-chloro-N-((1R,2R)-2-(hydroxymethyl)cyclohexyl)benzenesulfonamide] | ≤ 50

same assay, conditions: Homo sapiens, 18 h, H4 cells overexpressing HPLAP-APP, 18 hrs incubation at 37° C., Aβ in supernatant by time-resolved fluorescence; class symbols

SMILES | IC50 [nM]
O=S(=O)(c1ccc(Cl)cc1)N(Cc1ccc(-c2ncco2)cc1)[C@@H]1CCCCC[C@H]1CO (relative stereo) [Compound 30, 4-Chloro-N-(trans-2-(hydroxymethyl)cycloheptyl)-N-(4-(oxazol-2-yl)benzyl)benzenesulfonamide] | ≤ 50
O=S(=O)(c1ccc(Cl)s1)N(Cc1ccc(-c2ncon2)cc1)[C@@H]1CCCC[C@H]1CO (relative stereo) [Compound 12, N-(4-(1,2,4-Oxadiazol-3-yl)benzyl)-5-chloro-N-(trans-2-(hydroxymethyl)cyclohexyl)thiophene-2-sulfonamide] | ≤ 50
N#Cc1ccc(CN([C@@H]2CCCCC[C@H]2CO)S(=O)(=O)c2ccc(Cl)cc2)cc1 (relative stereo) [Compound 28, 4-Chloro-N-(4-cyanobenzyl)-N-(trans-2-(hydroxymethyl)cycloheptyl)benzenesulfonamide] | ≤ 50
O=S(=O)(c1ccc(Cl)cc1)N(Cc1ccc(-c2ncco2)c(F)c1F)[C@@H]1CCCC[C@H]1CO (relative stereo) [Compound 9, 4-Chloro-N-(2,3-difluoro-4-(oxazol-2-yl)benzyl)-N-(trans-2-(hydroxymethyl)cyclohexyl)benzenesulfonamide] | ≤ 50
N#Cc1cc(F)c(CN([C@@H]2CCCC[C@H]2CO)S(=O)(=O)c2ccc(Cl)cc2)cc1F (relative stereo) [Compound 10, 4-Chloro-N-(4-cyano-2,5-difluorobenzyl)-N-(trans-2-(hydroxymethyl)cyclohexyl)benzenesulfonamide] | ≤ 50
O=S(=O)(c1ccc(Cl)cc1)N(Cc1ccc(-c2ncon2)cc1)[C@@H]1CCCCC[C@H]1CO (relative stereo) [Compound 29, N-(4-(1,2,4-Oxadiazol-3-yl)benzyl)-4-chloro-N-(trans-2-(hydroxymethyl)cycloheptyl)benzenesulfonamide] | ≤ 50
CC(O)[C@@H]1CCCC[C@H]1N(Cc1ccc(-c2ncco2)cc1F)S(=O)(=O)c1ccc(Cl)cc1 (single isomer, unassigned) [Compound 25] | ≤ 50
O=S(=O)(c1ccc(Cl)cc1)N(Cc1ccc(-c2ncco2)cc1)[C@@H]1CCC[C@H]1CO (relative stereo) [Compound 1, 4-Chloro-N-(trans-2-(hydroxymethyl)cyclopentyl)-N-(4-(oxazol-2-yl)benzyl)benzenesulfonamide] | 50 to 500
O=S(=O)(c1ccc(Cl)cc1)N(Cc1ccc(-c2ncon2)cc1)[C@@H]1CCC[C@@H]1CO (relative stereo) [Compound 4, N-(4-(1,2,4-Oxadiazol-3-yl)benzyl)-4-chloro-N-(cis-2-(hydroxymethyl)cyclopentyl)benzenesulfonamide] | 50 to 500
O=S(=O)(c1ccc(C(F)(F)F)nc1)N(Cc1cc(F)c(-c2ncon2)cc1F)[C@@H]1CCCC[C@H]1CO [Compound 26, N-(2,5-Difluoro-4-(1,2,4-oxadiazol-3-yl)benzyl)-N-((1R,2R)-2-(hydroxymethyl)cyclohexyl)-6-(trifluoromethyl)pyridine-3-sulfonamide] | ≤ 50
O=S(=O)(N[C@H]1CCCC[C@@H]1CO)c1ccc(Cl)cc1 (single isomer, unassigned) [Compound 14] | 500 to 5000
O=S(=O)(c1ccc(Cl)cc1)N(Cc1ccc(-c2ncon2)cc1)C1(CO)CCCCC1 [Compound 37, N-(4-(1,2,4-Oxadiazol-3-yl)benzyl)-4-chloro-N-(1-(hydroxymethyl)cyclohexyl)benzenesulfonamide] | 500 to 5000
O=S(=O)(c1ccc(Cl)cc1)N(Cc1ccc(-c2ncon2)cc1F)[C@@H]1CCCC[C@H]1CO (relative stereo) [Compound 8, 4-Chloro-N-(2-fluoro-4-(1,2,4-oxadiazol-3-yl)benzyl)-N-(trans-2-(hydroxymethyl)cyclohexyl)benzenesulfonamide] | ≤ 50
O=S(=O)(c1ccc(Cl)cc1)N(Cc1ccc(-c2ncon2)cc1)[C@@H]1CCCCC[C@@H]1CO (relative stereo) [Compound 32, N-(4-(1,2,4-Oxadiazol-3-yl)benzyl)-4-chloro-N-(cis-2-(hydroxymethyl)cycloheptyl)benzenesulfonamide] | ≤ 50
CC(C)(O)[C@@H]1CCCC[C@H]1N(Cc1ccc(-c2ncco2)cc1F)S(=O)(=O)c1ccc(Cl)cc1 [Compound 23, 4-Chloro-N-(2-fluoro-4-(oxazol-2-yl)benzyl)-N-((1R,2R)-2-(2-hydroxypropan-2-yl)cyclohexyl)benzenesulfonamide] | 500 to 5000
O=S(=O)(c1ccc(Cl)cc1)N(Cc1ccc(-c2ncon2)cc1)[C@@H]1CCCC[C@H]1CO (single isomer, unassigned) [Compound 6, N-(4-(1,2,4-oxadiazol-3-yl)benzyl)-4-chloro-N-(trans-2-(hydroxymethyl)cyclohexyl)benzenesulfonamide] | ≤ 50
O=S(=O)(c1ccc(Cl)cc1)N(Cc1ccc(-c2ncco2)cc1)[C@@H]1CCCC[C@H]1CO [Compound 18, 4-Chloro-N-((1R,2R)-2-(hydroxymethyl)cyclohexyl)-N-(4-(oxazol-2-yl)benzyl)benzenesulfonamide] | ≤ 50
O=S(=O)(c1ccc(Cl)cc1)N(Cc1ccc(-c2ncco2)cc1)C1CC2CCC1C2O (stereo not shown) [Compound 34, N-(4-(Oxazol-2-yl)benzyl)-N-(7-hydroxybicyclo[2.2.1]heptan-2-yl)-4-chlorobenzenesulfonamide] | 500 to 5000
O=S(=O)(c1ccc(Cl)cc1)N(Cc1ccc(-c2ncco2)cc1F)[C@@H]1CCCC[C@H]1CF [Compound 22, 4-Chloro-N-(2-fluoro-4-(oxazol-2-yl)benzyl)-N-((1R,2R)-2-(fluoromethyl)cyclohexyl)benzenesulfonamide] | ≤ 50
O=S(=O)(c1ccc(Cl)cc1)N(Cc1ccc(Br)cc1)C1CC2CCC1C2O (stereo not shown) [Compound 33, N-(4-Bromobenzyl)-N-(7-hydroxybicyclo[2.2.1]heptan-2-yl)-4-chlorobenzenesulfonamide] | 500 to 5000
O=S(=O)(c1ccc(Cl)cc1)N(Cc1ccc(-c2ncco2)cc1)[C@@H]1CCCCC[C@@H]1CO (relative stereo) [Compound 31, 4-Chloro-N-(cis-2-(hydroxymethyl)cycloheptyl)-N-(4-(oxazol-2-yl)benzyl)benzenesulfonamide] | 50 to 500
O=S(=O)(c1ccc(Cl)cc1)N(Cc1cc(F)c(-c2ncco2)cc1F)[C@@H]1CCCC[C@H]1CO [Compound 20, 4-Chloro-N-(2,5-difluoro-4-(oxazol-2-yl)benzyl)-N-((1R,2R)-2-(hydroxymethyl)cyclohexyl)benzenesulfonamide] | ≤ 50
O=S(=O)(c1ccc(C(F)(F)F)nc1)N(Cc1ccc(-c2ncco2)c(F)c1F)[C@@H]1CCCC[C@H]1CO (relative stereo) [Compound 27, N-(2,3-Difluoro-4-(oxazol-2-yl)benzyl)-N-(trans-2-(hydroxymethyl)cyclohexyl)-6-(trifluoromethyl)pyridine-3-sulfonamide] | ≤ 50
O=S(=O)(c1ccc(Cl)cc1)N(Cc1ccc(-c2ncco2)cc1F)[C@@H]1CCCC[C@H]1CO [Compound 19, 4-Chloro-N-(2-fluoro-4-(oxazol-2-yl)benzyl)-N-((1R,2R)-2-(hydroxymethyl)cyclohexyl)benzenesulfonamide] | ≤ 50

same assay, conditions: Homo sapiens, 18 h, H4 cells overexpressing HPLAP-APP, 18 hrs incubation at 37° C., Aβ in supernatant by time-resolved fluorescence; numeric values

SMILES | IC50 [nM]
O=S(=O)(c1ccc(Cl)cc1)N(Cc1ccc(-c2ncon2)cc1)C1CC2CCC1C2O (stereo not shown) [Compound 35, N-(4-(1,2,4-Oxadiazol-3-yl)benzyl)-N-(7-hydroxybicyclo[2.2.1]heptan-2-yl)-4-chlorobenzenesulfonamide] | 3240
O=S(=O)(c1ccc(Cl)cc1)N(Cc1ccc(-c2ncco2)cc1)C1(CO)CCCCC1 [Compound 36, 4-Chloro-N-(1-(hydroxymethyl)cyclohexyl)-N-(4-(oxazol-2-yl)benzyl)benzenesulfonamide] | 346
CC(O)[C@@H]1CCCC[C@H]1N(Cc1ccc(-c2ncco2)cc1F)S(=O)(=O)c1ccc(Cl)cc1 (single isomer, unassigned) [Compound 24] | 2300
O=S(=O)(c1ccc(Cl)cc1)N(Cc1ccc(-c2ncco2)cc1)[C@@H]1CCC[C@@H]1CO (relative stereo) [Compound 3, 4-Chloro-N-(cis-2-(hydroxymethyl)cyclopentyl)-N-(4-(oxazol-2-yl)benzyl)benzenesulfonamide] | 223
